The record followed here is the SangsterLogP compilation.

A short description of the data set: method code SF-AS, from DOI: 10.1248/cpb.22.2064. The settings on record: pH 7.4.

A word on the logD: it is lipophilicity at a set pH, counting ionised and neutral species. Lower therefore signals a more hydrophilic compound. In the case of `Cc1c(N2CCCCC2)c(=O)n(-c2ccccc2)c(=O)n1-c1ccccc1`, the pH-dependent lipophilicity (logD) amounted to 3.24. Then `Cc1c(N2CCOCC2)c(=O)n(-c2ccccc2)c(=O)n1-c1ccccc1`, with 1.44.

`Cc1c(N2CCOCC2)c(=O)n(-c2ccccc2)c(=O)n1C1CCCCC1` gave a logD of 2.37.

Turning to `Cc1c(N2CCCCC2)c(=O)n(C)c(=O)n1C1CCCCC1`, the logD was determined as 3.68. For `Cc1c(N2CCCC2)c(=O)n(C)c(=O)n1C1CCCCC1` the value was 3.55; for `Cc1c(N(C)C)c(=O)n(C2CCCCC2)c(=O)n1C`, 3.02.

For the molecule `Cc1c(N(C)C)c(=O)n(Cc2ccccc2)c(=O)n1C`, the logD was found to be 2.47. For `Cc1c(N2CCCC2)c(=O)n(C)c(=O)n1-c1ccccc1` the value was 2.68. Then `Cc1c(N(C)C)c(=O)[nH]c(=O)n1C1CCCCC1`, with 2.53. For `Cc1c(N(C)C)c(=O)n(C)c(=O)n1C1CCCCC1` the value was 2.94. In turn, `Cc1c(N(C)C)c(=O)n(C2CCCC2)c(=O)n1C` gave a logD of 2.65.

Regarding `Cc1c(N2CCCCC2)c(=O)n(C)c(=O)n1-c1ccccc1`, the logD was 3.21.

In turn, `Cc1c(NCC(C)C)c(=O)n(-c2ccccc2)c(=O)n1C1CCCCC1` gave a logD of 3.27. For `Cc1c(NCC(C)C)c(=O)n(-c2ccccc2)c(=O)n1-c1ccccc1` the value was 2.4.
